For 40 compounds, IC50 results are on record in US20250059220A1, “SUBSTITUTED BENZOTHIOPHENE DERIVATIVES AND METHODS OF USE THEREOF” (Merck Sharp & Dohme LLC, priority 2021, published 2025).

SMILES strings stand for the structures. pIC50: −log10 of the molar value.

One test concerns the target human PTPN2 (1-387) (Homo sapiens (Human), UniProt P17706). The experiment in a line: Human PTPN2 Biochemical Assay. As to conditions: DiFMUP substrate. The method, then: Human PTPN2 Biochemical Assay
Test compounds were dissolved in DMSO, and 10-point serial 3-fold dilution series in DMSO were prepared in Echo Qualified 384-well Polypropylene Microplates (Labcyte, San Jose, CA) (top concentration 50 µM). Assay plates (384-well low volume black plates; Corning #3820, Corning, NY) were prepared by dispensing 50 nL of test compound, and DMSO (for high and low controls) by ECHO acoustic dispenser (Labcyte, San Jose CA). This was followed by addition of 5 μL of 0.2 nM human PTPN2 (1-387) solution (prepared in the assay buffer, 50 mM Tris pH 7.4, 150 mM NaCl, 0.01% Tween20, 0.5 mM dithiothreitol) to all wells except the low control. 5 μl of assay buffer was added into the low control, then the plate was incubated for 30 minutes at room temperature. Subsequently, 5 μl of 100 µM DiFMUP (6,8-difluoro-4-methylumbelliferyl phosphate) solution (prepared in assay buffer from 10 mM stock in DMSO) was added to the assay plate and incubated for 1 hour at room temperature. For detection, assay plates were read on SpectraMax Microplate Reader (Molecular Devices), with Excitation wavelength=360 nm and Emission wavelength=460 nm. Test compound effects were normalized to the window defined by the controls, DMSO/buffer, and DMSO/50 pM human PTPN2. Calculated % effects were fit using a 4-parameter algorithm, and EC50 was reported.

For another test, the target named is human PTPN1 (1-435) (Homo sapiens (Human), UniProt P18031). The experiment in a line: Human PTPN1 Biochemical Assay. To be noted: DiFMUP substrate, read-out: PTP1B IC50. The method, then: Human PTPN1 Biochemical Assay
Sequence of human PTPN1 (1-435) (P18031 whole entry): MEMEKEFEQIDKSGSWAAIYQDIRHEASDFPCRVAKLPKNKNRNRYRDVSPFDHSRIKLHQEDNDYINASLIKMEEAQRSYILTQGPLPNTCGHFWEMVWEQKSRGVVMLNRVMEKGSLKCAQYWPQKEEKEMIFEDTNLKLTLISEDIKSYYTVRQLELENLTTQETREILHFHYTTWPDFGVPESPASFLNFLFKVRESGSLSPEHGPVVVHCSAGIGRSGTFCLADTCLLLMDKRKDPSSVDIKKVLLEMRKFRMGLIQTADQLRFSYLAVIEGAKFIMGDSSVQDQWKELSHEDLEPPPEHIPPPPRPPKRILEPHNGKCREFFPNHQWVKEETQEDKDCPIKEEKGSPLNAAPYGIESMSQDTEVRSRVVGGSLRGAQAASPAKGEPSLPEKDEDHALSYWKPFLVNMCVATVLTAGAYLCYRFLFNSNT
Test compounds were dissolved in DMSO, and 10-point serial 3-fold dilution series in DMSO were prepared in Echo Qualified 384-well Polypropylene Microplates (Labcyte, San Jose, CA) (top concentration 50 µM). […] 5 μl of assay buffer was added into the low control. The plate was incubated for 30 minutes at room temperature. Subsequently, 5 μl of 100 µM DiFMUP (6,8-difluoro-4-methylumbelliferyl phosphate) solution (prepared in assay buffer from 10 mM stock in DMSO) was added to the assay plate and incubated for 1 hour at room temperature. For detection, assay plates were read on SpectraMax Microplate Reader (Molecular Devices), with Excitation wavelength=360 nm and Emission wavelength=460 nm. […] Calculated % effects were fit using a 4-parameter algorithm, and EC50 was reported.

Sequence of human PTPN2 (1-387) (P17706 other isoform, or with tags, fused parts or gaps): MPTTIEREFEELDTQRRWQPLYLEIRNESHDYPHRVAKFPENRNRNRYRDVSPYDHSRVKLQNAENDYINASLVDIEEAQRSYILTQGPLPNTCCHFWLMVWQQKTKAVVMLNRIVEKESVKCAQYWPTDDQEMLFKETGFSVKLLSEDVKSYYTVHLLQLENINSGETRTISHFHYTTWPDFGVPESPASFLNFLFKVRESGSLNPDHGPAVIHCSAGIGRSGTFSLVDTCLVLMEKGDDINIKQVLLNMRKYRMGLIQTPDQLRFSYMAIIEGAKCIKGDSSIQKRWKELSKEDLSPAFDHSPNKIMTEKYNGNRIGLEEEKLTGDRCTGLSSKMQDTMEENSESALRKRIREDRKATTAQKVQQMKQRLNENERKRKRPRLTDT

For `NC(=O)c1ccc2c(Br)c(C(F)(F)P(=O)(O)O)sc2c1` [Compound 300, ((3-bromo-6-carbamoylbenzo[b]thiophen-2-yl)difluoromethyl)phosphonic acid], the pIC50 (usually the IC50 on a negative log10 scale, so that one unit is a factor of ten) against human PTPN2 (1-387) was 4.77; on human PTPN1 (1-435) it was 5.14.

In the case of `O=C(NC1CC(F)(F)C1)c1cc(OCCCC(F)(F)F)c2sc(C(F)(F)P(=O)(O)O)c(Br)c2c1` [Compound 206], the pIC50 is 8.09 against human PTPN2 (1-387) and 8.05 on human PTPN1 (1-435).

With `CS(=O)(=O)c1ccc(COc2cc(C(N)=O)cc3c(Br)c(C(F)(F)P(=O)(O)O)sc23)cc1` [Compound 377], the pIC50 is 8.35 at human PTPN2 (1-387) and 8.24 on human PTPN1 (1-435).

In the case of `CS(=O)(=O)c1ccc(COc2cc(C(N)=O)cc3c(Br)c(C(F)(F)P(=O)(O)O)sc23)c(Cl)c1` [Compound 387], the pIC50 against human PTPN2 (1-387) was 7.82; at human PTPN1 (1-435), 7.45.

`CCC(NC(=O)c1ccc2sc(C(F)(F)P(=O)(O)O)c(Br)c2c1)c1ccccn1` (centres unmarked) [Compound 197]: the results for the pIC50 against human PTPN2 (1-387) and at human PTPN1 (1-435) were 5.02 and 5.14, respectively.

For the compound `CC(C)=CCCOc1cc(C(N)=O)cc2c(Br)c(C(F)(F)P(=O)(O)O)sc12` [Compound 307], the pIC50 on human PTPN2 (1-387) was 7.19; at human PTPN1 (1-435) it was 7.24.

As for `NC(=O)c1cc(OCc2ccc(S(N)(=O)=O)nc2)c2sc(C(F)(F)P(=O)(O)O)c(Br)c2c1` [Compound 380], the figures for the pIC50 at human PTPN2 (1-387) and on human PTPN1 (1-435) were 8.60 and 8.54, respectively.

Regarding `CS(=O)(=O)CCCOc1cc(-c2nc[nH]n2)cc2c(Br)c(C(F)(F)P(=O)(O)O)sc12` [Compound 439, ((3-bromo-7-(3-(methylsulfonyl)propoxy)-5-(1H-1,2,4-triazol-3-yl)benzo[b]thiophen-2-yl)difluoromethyl)phosphonic acid], the pIC50 at human PTPN2 (1-387) and at human PTPN1 (1-435) was 8.60 throughout.

As to `O=C(NCc1nccc(-c2cccnc2)n1)c1ccc2sc(C(F)(F)P(=O)(O)O)c(Br)c2c1` [Compound 91], the figures for the pIC50 against human PTPN2 (1-387) and on human PTPN1 (1-435) were 5.21 and 5.30, respectively.

As to `O=C(Nc1ccc(Cn2cccn2)cc1)c1ccc2sc(C(F)(F)P(=O)(O)O)c(Br)c2c1` [Compound 64], the figures for the pIC50 on human PTPN2 (1-387) and on human PTPN1 (1-435) were 5.75 and 5.84, respectively.

For `CNC(=O)c1cc(OCCCS(C)(=O)=O)c2sc(C(F)(F)P(=O)(O)O)c(Br)c2c1` [Compound 319], the pIC50 on human PTPN2 (1-387) was 8.01; at human PTPN1 (1-435), 8.04.

For `NC(=O)c1cc(OCC2CC(OC(F)(F)F)C2)c2sc(C(F)(F)P(=O)(O)O)c(Br)c2c1` (centres unmarked) [Compound 280], the pIC50 was 7.00 on human PTPN2 (1-387) and 7.21 at human PTPN1 (1-435).

`O=P(O)(O)C(F)(F)c1sc2c(OCCCC(F)(F)F)cc(-c3nnc(C(F)(F)F)[nH]3)cc2c1Br` [Compound 420, ((3-bromo-7-(4,4,4-trifluorobutoxy)-5-(5-(trifluoromethyl)-4H-1,2,4-triazol-3-yl)benzo[b]thiophen-2-yl)difluoromethyl)phosphonic acid]: the pIC50 was 8.55 against human PTPN2 (1-387) and 8.57 on human PTPN1 (1-435).

Consider `Cc1nn[nH]c1-c1cc(OCCCC(F)(F)F)c2sc(C(F)(F)P(=O)(O)O)c(Br)c2c1` [Compound 366], for which the pIC50 is 8.59 against human PTPN2 (1-387) and 8.60 on human PTPN1 (1-435).

For the compound `NC(=O)CCCCOc1cc(C(N)=O)cc2c(Br)c(C(F)(F)P(=O)(O)O)sc12` [Compound 375], the pIC50 against human PTPN2 (1-387) was 7.11; on human PTPN1 (1-435), 7.17.

Take `C[C@@H](NC(=O)c1ccc2sc(C(F)(F)P(=O)(O)O)c(Br)c2c1)c1cccnn1` [Compound 130]: the pIC50 on human PTPN2 (1-387) is 5.92; at human PTPN1 (1-435), 5.96.

On to `O=P(O)(O)C(F)(F)c1sc2ccc(-c3nc4ccccc4[nH]3)cc2c1Br` [Compound 230, ((5-(1H-benzo[d]imidazol-2-yl)-3-bromobenzo[b]thiophen-2-yl)difluoromethyl)phosphonic acid], for which the pIC50 is 5.76 against human PTPN2 (1-387) and 5.99 on human PTPN1 (1-435).

Consider `NC(=O)c1cc(OCCCNS(=O)(=O)C(F)(F)F)c2sc(C(F)(F)P(=O)(O)O)c(Br)c2c1` [Compound 334], for which the negative logarithm of the IC50 (pIC50) against human PTPN2 (1-387) was 7.11; on human PTPN1 (1-435), 7.18.

For the compound `O=C(NCc1c[nH]nn1)c1cc(Cl)c2sc(C(F)(F)P(=O)(O)O)c(Br)c2c1` [Compound 159], the pIC50 is 6.33 on human PTPN2 (1-387) and 6.60 at human PTPN1 (1-435).

Consider `CC(C)(O)CCOc1cc(C(N)=O)cc2c(Br)c(C(F)(F)P(=O)(O)O)sc12` [Compound 170], for which the pIC50 is 6.20 against human PTPN2 (1-387) and 6.29 on human PTPN1 (1-435).

On to `N#Cc1cc(OCCCC(F)(F)F)c2sc(C(F)(F)P(=O)(O)O)c(Br)c2c1` [Compound 233, ((3-bromo-5-cyano-7-(4,4,4-trifluorobutoxy)benzo[b]thiophen-2-yl)difluoromethyl)phosphonic acid], for which the pIC50 against human PTPN2 (1-387) is 6.84; on human PTPN1 (1-435), 7.11.

Regarding `O=C(NCc1ccc[n+]([O-])c1)c1ccc2sc(C(F)(F)P(=O)(O)O)c(Br)c2c1` [Compound 134], the values for the negative logarithm of the IC50 (pIC50) on human PTPN2 (1-387) and on human PTPN1 (1-435) were 5.54 and 5.62, respectively.

As for `COc1cc(COc2cc(C(N)=O)cc3c(Br)c(C(F)(F)P(=O)(O)O)sc23)ccc1C#N` [Compound 363], the pIC50 on human PTPN2 (1-387) is 6.95; at human PTPN1 (1-435), 6.82.

As for `NC(=O)c1cc(OCc2ccc(-c3cncnc3)cc2)c2sc(C(F)(F)P(=O)(O)O)c(Br)c2c1` [Compound 398], the pIC50 on human PTPN2 (1-387) is 7.63; at human PTPN1 (1-435) it was 7.10.

`CCC(COCc1ccccc1)NC(=O)c1ccc2sc(C(F)(F)P(=O)(O)O)c(Br)c2c1` (centres unmarked) [Compound 84]: the pIC50 at human PTPN2 (1-387) was 5.46; at human PTPN1 (1-435), 5.13.

For `CN(C)CCNC(=O)c1cc(OCCCC(F)(F)F)c2sc(C(F)(F)P(=O)(O)O)c(Br)c2c1` [Compound 211], the values for the pIC50 at human PTPN2 (1-387) and at human PTPN1 (1-435) were 6.29 and 6.16, respectively.

Regarding `N#Cc1cccc(-c2cccc(NC(=O)c3ccc4sc(C(F)(F)P(=O)(O)O)c(Br)c4c3)c2)c1` [Compound 66], the pIC50 against human PTPN2 (1-387) was 6.14; on human PTPN1 (1-435) it was 6.29.

Turning to `O=C(Nc1ccc(F)cc1)c1ccc2sc(C(F)(F)P(=O)(O)O)c(Br)c2c1` [Compound 25], the pIC50 on human PTPN2 (1-387) was 5.50; at human PTPN1 (1-435), 5.59.

For `Cc1ccc(COc2cc(C(N)=O)cc3c(Br)c(C(F)(F)P(=O)(O)O)sc23)cc1C(F)(F)F` [Compound 344], the pIC50 at human PTPN2 (1-387) is 6.93; at human PTPN1 (1-435), 6.71.

For `O=C(Nc1ccc2sc(C(F)(F)P(=O)(O)O)c(Br)c2c1)c1ccc(F)cc1` [Compound 212, ((3-bromo-5-(4-fluorobenzamido)benzo[b]thiophen-2-yl)difluoromethyl)phosphonic acid], the pIC50 at human PTPN2 (1-387) is 5.01; on human PTPN1 (1-435), 5.09.

On to `O=C(NCc1cnsn1)c1ccc2sc(C(F)(F)P(=O)(O)O)c(Br)c2c1` [Compound 188], for which the negative logarithm of the IC50 (pIC50) against human PTPN2 (1-387) was 5.85; on human PTPN1 (1-435), 6.15.

In the case of `CC1CCS(=O)(=O)C1CCOc1cc(C(N)=O)cc2c(Br)c(C(F)(F)P(=O)(O)O)sc12` (single isomer, unassigned) [Compound 395], the pIC50 at human PTPN2 (1-387) is 7.76; on human PTPN1 (1-435), 7.67.

In the case of `O=C(Nc1cccc(F)c1)c1ccc2sc(C(F)(F)P(=O)(O)O)c(Br)c2c1` [Compound 33], the values for the pIC50 on human PTPN2 (1-387) and at human PTPN1 (1-435) were 5.73 and 5.67, respectively.

Take `NC(=O)c1cc(OCCC2CCNS2(=O)=O)c2sc(C(F)(F)P(=O)(O)O)c(Br)c2c1` (single isomer, unassigned) [Compound 462]: the pIC50 against human PTPN2 (1-387) was 7.92; at human PTPN1 (1-435), 7.90.

Take `CC(C)(C)c1ccc(COc2cc(C(N)=O)cc3c(Br)c(C(F)(F)P(=O)(O)O)sc23)cc1` [Compound 359]: the pIC50 against human PTPN2 (1-387) was 7.45; on human PTPN1 (1-435), 6.96.

On to `O=P(O)(O)C(F)(F)c1sc2c(OCCCC(F)(F)F)cc(-c3nc[nH]n3)cc2c1Br` [Compound 232, ((3-bromo-5-(1H-1,2,4-triazol-3-yl)-7-(4,4,4-trifluorobutoxy)benzo[b]thiophen-2-yl)difluoromethyl)phosphonic acid], for which the pIC50 against human PTPN2 (1-387) is 8.51; on human PTPN1 (1-435), 8.47.

`N#CCOc1cc(C(N)=O)cc2c(Br)c(C(F)(F)P(=O)(O)O)sc12` [Compound 244]: the pIC50 on human PTPN2 (1-387) was 6.64; on human PTPN1 (1-435) it was 6.59.

`CCC(NC(=O)c1ccc2sc(C(F)(F)P(=O)(O)O)c(Br)c2c1)c1ncnn1C` (centres unmarked) [Compound 191]: the pIC50 on human PTPN2 (1-387) is 5.55; at human PTPN1 (1-435), 5.44.

For `O=C(N[C@@H]1CCCC[C@H]1OCc1ccccc1)c1ccc2sc(C(F)(F)P(=O)(O)O)c(Br)c2c1` [Compound 75], the pIC50 was 5.57 against human PTPN2 (1-387) and 5.73 at human PTPN1 (1-435).

Take `NC(=O)c1cc(OCc2ccc(S(N)(=O)=O)cc2)c2sc(C(F)(F)P(=O)(O)O)c(Br)c2c1` [Compound 397]: the results for the pIC50 against human PTPN2 (1-387) and on human PTPN1 (1-435) were 8.36 and 8.11, respectively.
